Measured values taken from patent US8188080B2 (Sanford-Burnham Medical Research Institute, priority 2007, dated 2012).
pIC50: −log10 of the molar value. Read-outs that look alike come from different tables or passages of the source.

Experiments:
[1] = system: phospholipase A2; settings: cited from earlier work
[2] = system: Ball-1 cells; settings: in vitro, arrest at G1/S transition; cited from earlier work
[3] = biological target: HIV-1 protease (Human immunodeficiency virus type 1 group M subtype B, UniProt P04585); settings: cited from earlier work
[4] = biological target: T1, heparanase (Homo sapiens, UniProt Q9Y251); settings: cited from earlier work
T1 sequence (Q9Y251 158-543 limits assumed): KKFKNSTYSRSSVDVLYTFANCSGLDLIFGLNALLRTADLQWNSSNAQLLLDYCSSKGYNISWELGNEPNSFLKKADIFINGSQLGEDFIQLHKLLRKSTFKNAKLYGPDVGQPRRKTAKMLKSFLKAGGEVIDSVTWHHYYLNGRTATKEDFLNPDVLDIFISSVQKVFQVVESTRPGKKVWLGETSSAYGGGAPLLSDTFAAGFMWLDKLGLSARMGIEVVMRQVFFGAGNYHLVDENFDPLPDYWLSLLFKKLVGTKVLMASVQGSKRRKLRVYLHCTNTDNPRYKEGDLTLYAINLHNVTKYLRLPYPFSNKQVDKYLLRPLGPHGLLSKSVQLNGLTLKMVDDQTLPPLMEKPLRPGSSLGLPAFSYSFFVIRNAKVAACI
T1 sequence (Q9Y251 36-109 partner limits assumed): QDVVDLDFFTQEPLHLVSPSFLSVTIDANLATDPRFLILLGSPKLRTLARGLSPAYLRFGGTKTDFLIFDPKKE

[5] = biological target: T2, VHR (Homo sapiens, UniProt P51452); experiment: Inhibition constant and inhibition pattern (Lineweaver-Burk plot); assay type: biochemical; settings: FIG. 1
Description: Using the same format and buffer system as for […] measurements, the enzyme was preincubated with various fixed concentrations of inhibitors for 10 minutes. The reaction was initiated by addition of various concentrations of DiFMUP (ranging from 0.2 to 10 km) to the reaction mixture. The initial rate was determined using a FLx800 micro plate reader (Bio-Tek Instruments, Inc.), and exitation wave length of 360 nm and measuring the emission of the fluorescent reaction product DiFMU at 460 nm. The nonenzymatic hydrolysis of the substrate was corrected by measuring the control without addition of enzyme. The inhibition constant and inhibition pattern was evaluated by fitting the data to the Michaelis-Menten equations for either competitive, uncompetitive or mixed inhibition, using nonlinear regression and the program GraphPad Prism™.

[6] = biological target: T2, VHR; experiment: PTP-catalyzed hydrolysis of DiFMUP, IC50 determination (VHR); assay type: biochemical; settings: read-out: IC50
Description: The PTP-catalyzed hydrolysis of 6,8-difluoro-4-methylumbelliferyl phosphate (DiFMUP) in the presence of the test compound is assayed at 30° C. in a 60 μL 96 well format reaction system in 0.15 M Bis-Tris, pH 6.0 assay buffer having an ionic strength of 150 mM (adjusted with NaCl) and containing 1 mM dithiotreitol and 5% DMSO. At various concentrations of the compound, the initial rate at fixed DiFMUP concentration (equal to the corresponding Km value for each PTP) was determined using a FLx800 micro plate reader (Bio-Tek Instruments, Inc.), an excitation wave length of 360 nm and measuring the emission of the fluorescent reaction product 6,8-difluoro-7-hydroxy-4-methylcoumarin (DiFMU) at 460 nm. The nonenzymatic hydrolysis of the substrate was corrected by measuring the control without addition of enzyme. The IC50 value was determined by plotting the relative activity versus inhibitor concentrations and fitting to Equation 1 using the software GraphPad Prism™ (GraphPad Software, Inc.).
[formula] In this case, Vi, is the reaction velocity when the inhibitor concentration is [I], V0 is the reaction velocity with no inhibitor and IC50=Ki+Ki[S]/Km.

T2 sequence (P51452 whole entry): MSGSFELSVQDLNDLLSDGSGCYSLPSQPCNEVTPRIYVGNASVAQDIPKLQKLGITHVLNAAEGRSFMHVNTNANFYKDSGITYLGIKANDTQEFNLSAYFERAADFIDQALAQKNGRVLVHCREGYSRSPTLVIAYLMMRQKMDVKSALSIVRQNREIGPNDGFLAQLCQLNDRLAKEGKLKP

With `CCCCCCCCCCCCCCCC(=O)C1=C(O)C(CO)OC1=O` (stereo not drawn) [RK-682] as the molecule, how does the “phospholipase A2 inhibition” value [1] read?
The value was “phospholipase A2 inhibition”.

And the cell cycle progression [2]?
Its cell cycle progression is “inhibited cell cycle progression”.

What about the HIV-1 protease inhibition [3] of the same molecule?
The HIV-1 protease inhibition was “HIV-1 protease inhibition”.

What about the heparanase inhibition [4] of the same molecule?
Its heparanase inhibition is “heparanase inhibition”.

For `O=C1/C(=C/C=C/c2ccccc2)SC(=S)N1CCS(=O)(=O)O` [2-[(Z)-4-oxo-5-((E)-3-phenylallylidene)-2-thioxothiazolidin-3-yl]ethane-sulfonic acid], which “inhibition pattern of VHR” value [5] is on record?
Its value is “competitive inhibition”.

With `CCOc1cc(/C=C2\SC(=S)N(CCS(=O)(=O)O)C2=O)ccc1O` [Compound 1, (Z)-2-[5-(3-Ethoxy-4-hydroxybenzylidene)-4-oxo-2-thioxothiazolidin-3-yl)ethansulfonic acid] as the molecule, how does the pIC50 [6] read?
Its pIC50 is 4.30.

With `O=C1/C(=C/c2ccc(Cl)cc2Cl)SC(=S)N1CCS(=O)(=O)O` [Compound 2, (Z)-2-[5-(2,4-Dichlorobenzylidene)-4-oxo-2-thioxothiazolidin-3-yl)ethansulfonic acid] as the molecule, how does the pIC50 [6] read?
The pIC50 was 5.01.

With “(Z)-2-[5-(5-bromo-1-methyl-2-oxoindolin-3-ylidene)-4-oxo-2-thioxothiazolindin-3-yl]ethanesulfonic acid [Compound 3]” as the molecule, how does the pIC50 ([6]; Table I, DiFMUP at Km, pH 6.0, 30° C.) read?
Its pIC50 is 4.49.

With `O=C(CN1C(=O)C(/C=C2\SC(=S)N(CCS(=O)(=O)O)C2=O)c2ccccc21)Nc1ccc(F)cc1` (stereo not drawn) [Compound 4] as the molecule, how does the pIC50 [6] read?
The pIC50 was 4.92.
